Assay results as given in patent publication US5589337A (priority 1995, dated 1996).
Structures can show the parent of a compound that is named as a salt. Where two headings read alike, the source gives them in different places.

Columns and labels:
sodA gene = details: cited from earlier work
[1] = groE promoter-lacZ induction (preferred kit, β-galactosidase); details: groe promoter-lacz e. coli
in vitro [2] = details: clpb promoter-lacz e. coli
[3] = micF promoter-lacZ induction (preferred kit, β-galactosidase); details: promoter-lacz bacterial strain
fepB promoter = assay: fepB promoter-controlled β-galactosidase expression (Example 7); details: 2,2'-dipyridyl 0-160 μM; FIG. 6
nfo promoter = assay: nfo promoter-controlled β-galactosidase expression (Example 7)
dinD promoter [4] = assay: dinD promoter-controlled β-galactosidase expression (Example 7); details: for dinD controlled β-galactosidase expression: 5 μg/ml, 0 min 321
dinD promoter [5] = details: cited from earlier work
adaA promoter = assay: adaA (ada-alkA) promoter-controlled β-galactosidase expression (Example 7)
dinD promoter [6] = test system: dinD promoter
soi28 promoter [7] = assay: soi28 promoter-lacZ induction (preferred kit, β-galactosidase)
DNA strand breaks = details: cited from earlier work
[8] = soi28 promoter-lacZ induction (preferred kit, β-galactosidase); details: promoter-lacz bacterial strain
topA promoter = assay: topA promoter-lacZ induction (preferred kit, β-galactosidase); details: Escherichia coli, read-out: Fold Induction, topA
[9] = nfo promoter-lacZ induction (preferred kit, β-galactosidase); details: nfo promoter-lacz e. coli
in vitro [10] = details: dind promoter-lacz e. coli
clpB promoter = details: 0.32 mg/ml
micF promoter = assay: micF promoter-lacZ induction (preferred kit, β-galactosidase)
ada gene = details: cited from earlier work
micF gene = details: cited from earlier work
katG gene = details: cited from earlier work
[11] = katG promoter-lacZ induction (preferred kit, β-galactosidase); details: promoter-lacz bacterial strain
ahp gene = details: cited from earlier work
merR promoter = assay: merR promoter-lacZ induction (preferred kit, β-galactosidase)
ada promoter = assay: ada promoter-lacZ induction (preferred kit, β-galactosidase); details: MMS 470 μM to 1880 μM; FIG. 9
zwf promoter = assay: zwf promoter-lacZ induction (preferred kit, β-galactosidase); details: Escherichia coli, read-out: Fold Induction, zwf
gsh gene = details: cited from earlier work
proU promoter = assay: proU promoter-controlled β-galactosidase expression (Example 7); details: NaCl 0-0.8M; FIG. 5
soi17 promoter = assay: soi17 promoter-controlled β-galactosidase expression (Example 7); details: NaCl 0-0.8M; FIG. 5
[12] = test system: mutant strains of Salmonella typhimurium; details: cited from earlier work
soi28 promoter [13] = assay: soi28 promoter-controlled β-galactosidase expression (Example 7)
ndh promoter = assay: ndh promoter-controlled β-galactosidase expression (Example 7)
nfo gene = details: cited from earlier work
rdc promoter = details: cited from earlier work
zwf gene = details: cited from earlier work
[14] = 2,2'-dipyridyl 0-160 μM, FIG. 6

In the case of c1cnc2c(c1)ccc1cccnc12 [1, 10-phenanthroline], the sodA gene induction (sodA gene) is listed as “also induced”.
In the case of CCCO [1-propanol], the fold induction [1] is reported as 1.5, the fold induction (in vitro [2]) is reported as 5.6 and the fold induction [3] is reported as 4.
For c1ccc(-c2ccccn2)nc1 [2,2'-dipyridyl], the “induction of fepB promoter (chelating metals)” value (fepB promoter) is given as “fepB induction”, the “induction of sodA promoter (superoxide formation)” value (sodA promoter; [14]) is given as “sodA induction” and the sodA gene induction (sodA gene) is given as “also induced”. For the same molecule, the “effect on DNA replication (sfiA promoter)” value (sfiA promoter; [14]) was “no effect on DNA replication (sfiA promoter)”.
In the case of O=[N+]([O-])c1cc[n+]([O-])c2ccccc12 [4-NQO, 4-nitroquinoline oxide], the “induction of nfo promoter” value (nfo promoter; 4-NQO 0-100 picomolar, FIG. 2) is listed as “minor, but dose-dependent induction”, the “induction of dinD promoter” value (dinD promoter [4]; 4-NQO 0-100 picomolar, FIG. 2) is listed as “induction of the sfiA and dinD promoters” and the dinD induction (dinD promoter [5]) is listed as “Typical inducers of dinD”. The “induction of sfiA promoter” value (sfiA promoter; 4-NQO 0-100 picomolar, FIG. 2) was “induction of the sfiA and dinD promoters”, the “induction of adaA promoter (DNA alkylation)” value (adaA promoter; 4-NQO 0-100 picomolar, FIG. 2) was “not DNA alkylation (adaA promoter)” and the “induction of dinD promoter” value (dinD promoter [6]; 4-NQO, FIG. 11) was “causes induction of the dinD promoter”. The “induction of soi28 promoter” value (soi28 promoter [7]; 4-NQO, FIG. 11) was “to a lesser extent”.
In the case of O=C1O[C@H]([C@@H](O)CO)C(O)=C1O [Ascorbic acid], the “number of hydrogen peroxide induced DNA strand breaks” value (DNA strand breaks) is listed as “reduce the number of hydrogen peroxide induced DNA strand breaks”.
Work on ClC(Cl)Cl [Chloroform] yielded a fold induction (in vitro [2]) of 4.5 and a fold induction [8] of 2.
In the case of C[S+](C)[O-] [DMSO], the fold induction at 25 % (topA promoter) is reported as 1.7, the fold induction [9] is reported as 1.6 and the fold induction (in vitro [2]) is reported as 2. It also gave a fold induction (in vitro [10]) of 2.2.
In the case of O=[N+]([O-])c1ccc(F)c([N+](=O)[O-])c1 [Dinitrofluoro benzene], the “Fold Induction, clpB” value (clpB promoter) is reported as 2 fold and the “Fold Induction, micF” value (micF promoter; 0.32 mg/ml) is reported as 3.2 fold.
For O=C(O)CN(CCN(CC(=O)O)CC(=O)O)CC(=O)O [EDTA], the sodA gene induction (sodA gene) is listed as “also induced”.
For CCOS(C)(=O)=O [EMS, ethlymethanosulfate], the “ada gene expression induction” value (ada gene) is listed as “induce ada gene expression”.
In the case of CCO [Ethanol], the micF gene induction (micF gene) is given as “also induced”, the fold induction [8] is given as 1.7 and the fold induction [3] is given as 2.5.
For OO [Hydrogen peroxide], the katG gene induction (katG gene) is given as “can be induced”, the fold induction [11] is given as 2 and the dinD induction (dinD promoter [5]) is given as “does not respond to oxidative DNA damage, except when cells are exposed to extremely high concentrations of H2 O2”. The ahp gene induction (ahp gene) was “induced” and the fold induction (in vitro [10]) was 3.
With [Cl][Hg][Cl] [Mercuric chloride] the “Fold Induction, merR” value (merR promoter; 2 ng/ml) was 27 fold and the “induction of merR promoter” value (merR promoter; mercuric chloride, FIG. 10) was “specifically induces the merR promoter”.
In the case of COS(C)(=O)=O [Methyl Methane-sulfonate, methyl methanesulfonate], the “induction of nfo promoter (oxygen-dependent damage)” value (nfo promoter; MMS 0-40 nM, FIG. 3) is listed as “not oxygen-dependent (nfo promoter)”, the “induction of dinD promoter (strand breaks)” value (dinD promoter [4]; MMS 0-40 nM, FIG. 3) is listed as “not via stand breaks (dinD promoter)” and the “ada gene expression induction” value (ada gene) is listed as “induce ada gene expression”. The “induction of adaA promoter (DNA alkylation)” value (adaA promoter; MMS 0-40 nM, FIG. 3) was “induction of the adaA promoter” and the “induction of ada promoter” value (ada promoter) was “specifically induces the ada promoter”.
With CO[C@@]12[C@H](COC(N)=O)C3=C(C(=O)C(C)=C(N)C3=O)N1C[C@@H]1N[C@@H]12 [Mitomycin C] the “dinD controlled β-galactosidase expression” value (dinD promoter [4]; 15 min exposure) was 350, the “dinD controlled β-galactosidase expression” value (dinD promoter [4]; 25 min exposure) was 1036 and the “dinD controlled β-galactosidase expression” value (dinD promoter [4]; 35 min exposure) was 811. For the same molecule, the “dinD controlled β-galactosidase expression” value (dinD promoter [4]; 55 min exposure) was 1204, the fold induction at 5 µg/mL (dinD promoter [4]; Escherichia coli, 55 min, read-out: dinD promoter induction) was roughly 4 and the dinD induction (dinD promoter [5]) was “Typical inducers of dinD”.
CN(C)C=O [N,N Dimethyl formamide] gave a fold induction (in vitro [2]) of 2.5, a fold induction at 0.8 % (zwf promoter) of 1.5 and a fold induction [3] of 3.3.
In the case of CCN1C(=O)C=CC1=O [N-ethylmaleimide], the gsh gene induction (gsh gene) is given as “induced”.
In the case of [Cl-].[Na+] [NaCl, sodium chloride], the “induction of proU promoter” value (proU promoter) is reported as “induces the proU promoter”, the “induction of sodA promoter (superoxide formation)” value (sodA promoter; NaCl 0-0.8M, FIG. 5) is reported as “no induction of sodA or soi17” and the “induction of soi17 promoter (superoxide formation)” value (soi17 promoter) is reported as “no induction of sodA or soi17”.
For C[n+]1ccc(-c2cc[n+](C)cc2)cc1 [Paraquat], the “induction of nfo promoter” value (nfo promoter) is listed as “induced the nfo promoter”, the “nfo induction, galactosidase activity” value (nfo promoter; 50 μM, 0 μM control 2952) is listed as 8100 units and the micF gene induction (micF gene) is listed as “induced”. The “response in Ames Assay” value [12] was “neither compound produces a positive response”, the “induction of soi28 promoter” value (soi28 promoter [13]) was “cause induction of the soi28 promoter” and the “soi28 induction, galactosidase activity” value (soi28 promoter [13]; 50 μM, 0 μM control 670) was 2370 units. For the same molecule, the sodA gene induction (sodA gene) was “strongly induced”, the “induction of ndh promoter” value (ndh promoter) was “negligible effect” and the “ndh induction, galactosidase activity” value (ndh promoter; 50 μM, 0 μM control 464) was 980 units. The nfo induction (nfo gene) was “specifically induced”, the “effect on merR promoter” value (merR promoter) was “apparent inhibition” and the “effect on dinD promoter” value (dinD promoter [6]) was “apparent inhibition”. The fold induction at 8000 µg/mL (zwf promoter) was 3, the “induction of soi28 promoter” value (soi28 promoter [7]) was “specific induction of the soi28 and micF promoters” and the “induction of micF promoter” value (micF promoter) was “specific induction of the soi28 and micF promoters”.
Oc1ccccc1 [Phenol] gave a fold induction [1] of 2.2 and a fold induction (in vitro [2]) of 1.5.
CC(C)(C)c1cc(O)ccc1O [Tert-butyl hydroquinone] showed a fold induction at 2000 µM (in vitro [2]) of 2.8 and a fold induction at 2000 µM [3] of 2.6.
In the case of CC1=CC(=O)c2ccccc2C1=O [menadione], the sodA gene induction (sodA gene) is listed as “strongly induced” and the nfo induction (nfo gene) is listed as “specifically induced”.
In the case of CN(C)c1ccc2nc3ccc(=[N+](C)C)cc-3sc2c1 [methylene blue], the sodA gene induction (sodA gene) is given as “strongly induced”.
For C[n+]1c2ccccc2nc2ccccc21 [phenazine methyl sulfate], the sodA gene induction (sodA gene) is given as “strongly induced”.
For CC1=CC(=O)c2c(O)cccc2C1=O [plumbagin], the “response in Ames Assay” value [12] is listed as “neither compound produces a positive response”, the “induction of soi28 promoter” value (soi28 promoter [13]; plumbagin 0-160 μM, FIG. 4) is listed as “cause induction of the soi28 promoter” and the sodA gene induction (sodA gene) is listed as “strongly induced”.
In the case of COC1=C(N)C(=O)c2nc(-c3nc(C(=O)O)c(C)c(-c4ccc(OC)c(OC)c4O)c3N)ccc2C1=O [streptonigrin], the sodA gene induction (sodA gene) is given as “strongly induced”.
In the case of OCC(O)CS (stereo not drawn) [thioglycerol], the rdc promoter induction (rdc promoter) is given as “induced”.
In the case of bleomycin, the dinD induction (dinD promoter [5]) is listed as “Typical inducers of dinD”.
For nitric oxide, the zwf gene induction (zwf gene) is given as “induced”.
